Target: Integrin alpha-IIb/beta-3 (Homo sapiens, UniProt P08514+P05106)
Test: ChEBML_90196
From the text: In vitro inhibition of ADP-mediated human gel filtered platelet aggregation.

Integrin alpha-IIb/beta-3, sequence (P05106 27-788 limits assumed): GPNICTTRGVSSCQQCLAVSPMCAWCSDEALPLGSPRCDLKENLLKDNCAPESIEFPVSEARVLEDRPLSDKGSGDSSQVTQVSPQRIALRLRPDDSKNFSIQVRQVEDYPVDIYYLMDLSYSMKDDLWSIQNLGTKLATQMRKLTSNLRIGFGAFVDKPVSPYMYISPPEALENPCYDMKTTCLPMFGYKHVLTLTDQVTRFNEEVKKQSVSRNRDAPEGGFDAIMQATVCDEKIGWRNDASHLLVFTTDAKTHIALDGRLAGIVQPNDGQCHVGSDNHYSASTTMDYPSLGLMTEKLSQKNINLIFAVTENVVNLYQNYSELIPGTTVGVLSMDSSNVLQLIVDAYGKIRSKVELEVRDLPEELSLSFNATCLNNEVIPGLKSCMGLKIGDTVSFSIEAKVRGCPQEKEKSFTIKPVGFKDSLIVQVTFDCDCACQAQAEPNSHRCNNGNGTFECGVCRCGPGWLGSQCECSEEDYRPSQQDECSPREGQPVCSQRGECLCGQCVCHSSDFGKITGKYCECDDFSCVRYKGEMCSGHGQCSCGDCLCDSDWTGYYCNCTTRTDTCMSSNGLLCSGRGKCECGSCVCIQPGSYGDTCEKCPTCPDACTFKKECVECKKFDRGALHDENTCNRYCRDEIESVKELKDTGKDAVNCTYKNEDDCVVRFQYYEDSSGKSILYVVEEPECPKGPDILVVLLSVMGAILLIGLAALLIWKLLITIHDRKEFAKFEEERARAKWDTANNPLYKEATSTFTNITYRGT
Integrin alpha-IIb/beta-3, sequence (P08514 32-887 limits assumed): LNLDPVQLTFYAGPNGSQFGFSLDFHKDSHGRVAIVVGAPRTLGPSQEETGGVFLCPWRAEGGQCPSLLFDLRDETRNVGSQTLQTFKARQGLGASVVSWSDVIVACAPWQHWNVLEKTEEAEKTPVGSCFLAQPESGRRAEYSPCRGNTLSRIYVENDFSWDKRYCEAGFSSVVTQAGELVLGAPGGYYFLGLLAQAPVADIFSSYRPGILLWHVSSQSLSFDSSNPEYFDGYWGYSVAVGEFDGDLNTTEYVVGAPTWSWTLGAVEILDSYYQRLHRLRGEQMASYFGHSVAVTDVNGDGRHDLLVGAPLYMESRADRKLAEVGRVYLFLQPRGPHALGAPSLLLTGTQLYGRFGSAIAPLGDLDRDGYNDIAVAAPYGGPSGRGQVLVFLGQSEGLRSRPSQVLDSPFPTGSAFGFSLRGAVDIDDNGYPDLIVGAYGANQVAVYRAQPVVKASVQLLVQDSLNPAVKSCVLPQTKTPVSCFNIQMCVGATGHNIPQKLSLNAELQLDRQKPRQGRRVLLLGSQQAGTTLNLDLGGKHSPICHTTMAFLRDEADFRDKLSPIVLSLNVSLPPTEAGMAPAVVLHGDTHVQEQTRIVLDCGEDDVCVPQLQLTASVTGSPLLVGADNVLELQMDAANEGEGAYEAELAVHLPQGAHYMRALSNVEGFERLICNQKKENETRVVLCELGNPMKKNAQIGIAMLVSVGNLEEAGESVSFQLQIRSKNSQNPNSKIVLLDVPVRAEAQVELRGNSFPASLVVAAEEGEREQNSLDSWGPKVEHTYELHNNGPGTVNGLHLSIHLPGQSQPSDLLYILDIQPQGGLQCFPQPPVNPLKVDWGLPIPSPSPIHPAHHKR
Integrin alpha-IIb/beta-3, sequence (P08514 891-1039 limits assumed): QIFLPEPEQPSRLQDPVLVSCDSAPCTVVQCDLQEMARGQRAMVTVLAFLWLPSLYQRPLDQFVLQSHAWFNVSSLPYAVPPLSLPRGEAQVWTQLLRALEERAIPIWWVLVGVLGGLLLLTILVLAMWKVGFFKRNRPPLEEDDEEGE

| Structure (SMILES) | IC50 [µM] |
| --- | --- |
| NCCCCCCCCOc1ccc(C[C@H](NC(=O)OCc2ccccc2)C(=O)O)cc1 [3-[4-(8-Amino-octyloxy)-phenyl]-2-benzyloxycarbonylamino-propionic acid] | 40 |
| O=C(N[C@@H](Cc1ccc(OCCCc2ccccc2)cc1)C(=O)O)OCc1ccccc1 | > 1000 |
| NCCCCCCOc1ccc(CCC(=O)O)cc1 | > 100 |
| CC(C)(C)NCC(O)COc1ccc(C[C@H](NC(=O)OCc2ccccc2)C(=O)O)cc1 (some centres not stated) | 27 |

The next molecules have a lower IC50 than those just listed; values first:

| IC50 [µM] | Structure (SMILES) |
| --- | --- |
| 22 | CC(C)(C)NCCCOc1ccc(C[C@H](NC(=O)OCc2ccccc2)C(=O)O)cc1 [(S)-2-Benzyloxycarbonylamino-3-[4-(3-tert-butylamino-propoxy)-phenyl]-propionic acid] |
| 3.8 | CCCCCC(=O)N[C@@H](Cc1ccc(OCCCCCCN)cc1)C(=O)O |
| 2 | NCCCCCCOc1ccc(C[C@H](NS(=O)(=O)Cc2ccccc2)C(=O)O)cc1 |
